Article PMC6985242, “Effect of Amoxicillin in combination with Imipenem-Relebactam against Mycobacterium abscessus” (Scientific Reports, 2020)

Experiments:
Format in all cases: biochemical
[1] = biological target: T1, BlaMab (M. abscessus endogenous class A beta-lactamase) (Mycobacteroides abscessus, UniProt B1MCI3); assay: spectrophotometric hydrolysis at […] nm, Michaelis-Menten (Km across […] relebactam)
T1 construct: gene MAB_2875; -30 residue N-terminal truncated protein, 6x-His tagged

[2] = biological target: T1, BlaMab (M. abscessus endogenous class A beta-lactamase); assay: nitrocefin hydrolysis kinetics (Ki app, k2/Ki, koff) with recombinant BlaMab; TLC penicillin V assay
[3] = biological target: T1, BlaMab (M. abscessus endogenous class A beta-lactamase); assay: TLC turnover assay with recombinant BlaMab

T1 sequence (B1MCI3 entry or part of it): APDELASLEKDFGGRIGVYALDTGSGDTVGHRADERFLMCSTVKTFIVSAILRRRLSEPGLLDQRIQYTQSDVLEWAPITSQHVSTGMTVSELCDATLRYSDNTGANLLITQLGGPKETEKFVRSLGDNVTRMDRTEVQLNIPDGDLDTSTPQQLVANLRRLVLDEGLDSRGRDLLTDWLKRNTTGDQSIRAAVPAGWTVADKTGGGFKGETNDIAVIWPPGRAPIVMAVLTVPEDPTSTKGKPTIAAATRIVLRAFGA

How did the Km [1] turn out when O=C(Cc1cccs1)N[C@@H]1C(=O)N2C(C(=O)O)=C(/C=C/c3ccc([N+](=O)[O-])cc3[N+](=O)[O-])CS[C@H]12 [nitrocefin] was run?
Its Km is 69.43–16.96 µM.

For O=C(NC1CCNCC1)[C@@H]1CC[C@@H]2CN1C(=O)N2OS(=O)(=O)O [REL, relebactam], which Ki [2] is on record?
Its Ki is 184 nM.

CC1(C)S[C@@H]2[C@H](NC(=O)COc3ccccc3)C(=O)N2[C@H]1C(=O)O [PenV, penicillin V] was tested. Which “TLC turnover assay with recombinant BlaMab” value [3] did it give?
Its value is “The hydrolysis of penicillin V to penicilloic acid by BlaMab resulted in a spot with reduced Rf value”.
